Source: PubChem BioAssay AID2060618 (Molecular Pharmacology Branch, DTP, NCI, 2025)

System: 454973-116-R2-J3-PDC spheroids, percent test/control viability
Experiment: Anticancer human tumor 454973-116-R2-J3-PDC patient-derived pancreatic carcinoma cell line growth inhibition [CLK]
Settings: spheroids with HUVEC and MSC; for IC50: curve of first compound; for viability, T/C: stronger effect = lower value
Method in brief: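 Patient-derived tumor cells grown as complex spheroids with HUVEC endothelial cells and mesenchymal stem cells, treated with drug combinations. Concentrations descend in half-log steps from near clinical Cmax, or from 10 microM if Cmax unknown.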

[1] = second compound 0.0316 µM, first compound 0.0316 µM
[2] = second compound 0.0316 µM, first compound 0.1 µM
[3] = second compound 0.0316 µM, first compound 0.316 µM
[4] = second compound 0.0316 µM, first compound 1 µM
[5] = second compound 0.0316 µM, first compound 3.16 µM
[6] = second compound 0.0316 µM, first compound 10 µM
[7] = second compound 0.1 µM, first compound 0.0316 µM
[8] = second compound 0.1 µM, first compound 0.1 µM
[9] = second compound 0.1 µM, first compound 0.316 µM
[10] = second compound 0.1 µM, first compound 1 µM
[11] = second compound 0.1 µM, first compound 3.16 µM
[12] = second compound 0.1 µM, first compound 10 µM
[13] = second compound 0.316 µM, first compound 0.0316 µM
[14] = second compound 0.316 µM, first compound 0.1 µM
[15] = second compound 0.316 µM, first compound 0.316 µM
[16] = second compound 0.316 µM, first compound 1 µM
[17] = second compound 0.316 µM, first compound 3.16 µM
[18] = second compound 0.316 µM, first compound 10 µM
[19] = second compound 1 µM, first compound 0.0316 µM
[20] = second compound 1 µM, first compound 0.1 µM
[21] = second compound 1 µM, first compound 0.316 µM
[22] = second compound 1 µM, first compound 1 µM
[23] = second compound 1 µM, first compound 3.16 µM
[24] = second compound 1 µM, first compound 10 µM
[25] = second compound 3.16 µM, first compound 0.0316 µM
[26] = second compound 3.16 µM, first compound 0.1 µM
[27] = second compound 3.16 µM, first compound 0.316 µM
[28] = second compound 3.16 µM, first compound 1 µM
[29] = second compound 3.16 µM, first compound 3.16 µM
[30] = second compound 3.16 µM, first compound 10 µM
[31] = second compound 10 µM, first compound 0.0316 µM
[32] = second compound 10 µM, first compound 0.1 µM
[33] = second compound 10 µM, first compound 0.316 µM
[34] = second compound 10 µM, first compound 1 µM
[35] = second compound 10 µM, first compound 3.16 µM
[36] = second compound 10 µM, first compound 10 µM
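Note: spheroids exposed to compounds for 7 days before readout.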

CC(=O)O[C@H]1C(=O)[C@@]2(C)[C@H]([C@H](OC(=O)c3ccccc3)[C@]3(O)C[C@H](OC(=O)[C@H](O)[C@@H](NC(=O)c4ccccc4)c4ccccc4)C(C)=C1C3(C)C)[C@]1(OC(C)=O)CO[C@@H]1C[C@@H]2O + CN1CCN(c2cc(C(=O)Nc3cc4cc(-c5cnn(C)c5)ccc4cn3)ccn2)CC1
IC50 (second compound 0.0316 µM): < 31.6 nM
IC50 (second compound 0.1 µM): < 31.6 nM
IC50 (second compound 0.316 µM): < 31.6 nM
IC50 (second compound 1 µM): < 31.6 nM
IC50 (second compound 3.16 µM): < 31.6 nM
IC50 (second compound 10 µM): < 31.6 nM
viability, T/C [1]: 7.05%
viability, T/C [2]: 6.65%
viability, T/C [3]: 6.57%
viability, T/C [4]: 6.34%
viability, T/C [5]: 6.67%
viability, T/C [6]: 12.9%
viability, T/C [7]: 5.8%
viability, T/C [8]: 5.47%
viability, T/C [9]: 3.95%
viability, T/C [10]: 5.69%
viability, T/C [11]: 4.88%
viability, T/C [12]: 6.14%
viability, T/C [13]: 1.6%
viability, T/C [14]: 1.85%
viability, T/C [15]: 2.44%
viability, T/C [16]: 1.75%
viability, T/C [17]: 1.77%
viability, T/C [18]: 1.9%
viability, T/C [19]: 0.11%
viability, T/C [20]: 0.1%
viability, T/C [21]: 0.92%
viability, T/C [22]: 0.07%
viability, T/C [23]: 0.08%
viability, T/C [24]: 0.09%
viability, T/C [25]: 0.14%
viability, T/C [26]: 0.12%
viability, T/C [27]: 0.21%
viability, T/C [28]: 0.12%
viability, T/C [29]: 0.15%
viability, T/C [30]: 0.13%
viability, T/C [31]: 0.14%
viability, T/C [32]: 0.17%
viability, T/C [33]: 0.19%
viability, T/C [34]: 1.2%
viability, T/C [35]: 0.16%
viability, T/C [36]: 2.06%

COc1ccc([C@@H](O)c2cc(-c3ncnc4cc(N5CCOCC5)ccc34)c(F)cc2Cl)nn1 + CN1CCN(c2cc(C(=O)Nc3cc4cc(-c5cnn(C)c5)ccc4cn3)ccn2)CC1
IC50 (second compound 0.0316 µM): > 10000 nM
IC50 (second compound 0.1 µM): 2720 nM
IC50 (second compound 0.316 µM): < 31.6 nM
IC50 (second compound 1 µM): < 31.6 nM
IC50 (second compound 3.16 µM): < 31.6 nM
IC50 (second compound 10 µM): < 31.6 nM
viability, T/C [1]: 93.8%
viability, T/C [2]: 107%
viability, T/C [3]: 101%
viability, T/C [4]: 90.8%
viability, T/C [5]: 73.5%
viability, T/C [6]: 54.9%
viability, T/C [7]: 74.8%
viability, T/C [8]: 79.1%
viability, T/C [9]: 71.5%
viability, T/C [10]: 66.5%
viability, T/C [11]: 47.4%
viability, T/C [12]: 28.6%
viability, T/C [13]: 1.76%
viability, T/C [14]: 1.85%
viability, T/C [15]: 2.44%
viability, T/C [16]: 1.05%
viability, T/C [17]: 1.4%
viability, T/C [18]: 2.15%
viability, T/C [19]: 0.11%
viability, T/C [20]: 0.11%
viability, T/C [21]: 2.22%
viability, T/C [22]: 0.08%
viability, T/C [23]: 0.07%
viability, T/C [24]: 0.06%
viability, T/C [25]: 0.09%
viability, T/C [26]: 0.15%
viability, T/C [27]: 0.16%
viability, T/C [28]: 0.14%
viability, T/C [29]: 0.11%
viability, T/C [30]: 0.72%
viability, T/C [31]: 2.12%
viability, T/C [32]: 0.13%
viability, T/C [33]: 0.29%
viability, T/C [34]: 0.16%
viability, T/C [35]: 0.99%
viability, T/C [36]: 0.16%

COc1cccc2c1C(=O)c1c(O)c3c(c(O)c1C2=O)CC(O)(C(=O)CO)CC3OC1CC(N)C(O)C(C)O1 (stereo unspecified) + CN1CCN(c2cc(C(=O)Nc3cc4cc(-c5cnn(C)c5)ccc4cn3)ccn2)CC1
IC50 (second compound 0.0316 µM): < 31.6 nM
IC50 (second compound 0.1 µM): < 31.6 nM
IC50 (second compound 0.316 µM): < 31.6 nM
IC50 (second compound 1 µM): < 31.6 nM
IC50 (second compound 3.16 µM): < 31.6 nM
IC50 (second compound 10 µM): < 31.6 nM
viability, T/C [1]: 40.8%
viability, T/C [2]: 27.2%
viability, T/C [3]: 21%
viability, T/C [4]: 8.81%
viability, T/C [5]: 0.25%
viability, T/C [6]: 0.19%
viability, T/C [7]: 29.2%
viability, T/C [8]: 26.5%
viability, T/C [9]: 17.9%
viability, T/C [10]: 3.51%
viability, T/C [11]: 0.16%
viability, T/C [12]: 0.16%
viability, T/C [13]: 1.16%
viability, T/C [14]: 1.16%
viability, T/C [15]: 1.46%
viability, T/C [16]: 0.14%
viability, T/C [17]: 0.33%
viability, T/C [18]: 0.12%
viability, T/C [19]: 0.11%
viability, T/C [20]: 0.15%
viability, T/C [21]: 1.47%
viability, T/C [22]: 0.11%
viability, T/C [23]: 0.12%
viability, T/C [24]: 0.18%
viability, T/C [25]: 0.08%
viability, T/C [26]: 0.45%
viability, T/C [27]: 0.15%
viability, T/C [28]: 0.15%
viability, T/C [29]: 0.17%
viability, T/C [30]: 0.1%
viability, T/C [31]: 0.12%
viability, T/C [32]: 0.43%
viability, T/C [33]: 0.13%
viability, T/C [34]: 0.12%
viability, T/C [35]: 0.14%
viability, T/C [36]: 0.11%
